Test results: patent US8618299B2, “Azinone-substituted azapolycycle MCH-1 antagonists, methods of making, and use thereof” (Albany Molecular Research, Inc., priority 2009, dated 2013)

Columns and labels:
human MCH-1 receptor = human MCH-1 receptor (Homo sapiens (Human), UniProt Q99705); test: Binding assay for human melanin-concentrating hormone (MCH1) receptor; settings: membranes from CHO-K1 cells expressing human MCH1 receptor; 1.4 nM [3H]-labeled radioligand, 60 min at 25° C., pH 7.4; Ki from Cheng Prusoff equation
Sequence of human MCH-1 receptor (Q99705 whole entry): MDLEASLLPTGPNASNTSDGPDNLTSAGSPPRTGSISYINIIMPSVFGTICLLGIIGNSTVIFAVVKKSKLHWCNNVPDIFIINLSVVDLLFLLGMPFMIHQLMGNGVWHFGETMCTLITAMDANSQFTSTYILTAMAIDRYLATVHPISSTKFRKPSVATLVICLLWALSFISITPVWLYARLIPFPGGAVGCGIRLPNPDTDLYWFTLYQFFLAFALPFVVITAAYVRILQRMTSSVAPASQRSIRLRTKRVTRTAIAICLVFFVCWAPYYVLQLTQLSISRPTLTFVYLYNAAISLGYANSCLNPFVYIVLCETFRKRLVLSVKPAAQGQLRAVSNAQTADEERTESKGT

Row | Ki (human MCH-1 receptor) | melting point | Compound
1 | 0.01 µM | 150 to 160 °C | Cl.Cn1c2c(c3ccc(-n4ccc(OCc5ccc(Cl)cc5F)cc4=O)nc31)C1CCCN1CC2 (stereo not shown) [Example 47, 4-(4-Chloro-2-fluorobenzyloxy)-1-(7-methyl-2,3,5,6,7,11c-hexahydro-1H-pyrido[3′,2′:4,5]pyrrolo[2,3-g]indolizin-9-yl)pyridin-2(1H)-one Hydrochloride]
2 | 0.026 µM | 210 to 220 °C | Cl.Cn1c2c(c3ccc(-n4ccc(OCc5ccc(Cl)cc5F)cc4=O)nc31)CN1CCCC1C2 (stereo not shown) [Example 54, 4-(4-Chloro-2-fluorobenzyloxy)-1-(11-methyl-5,7,8,9,9a,10-hexahydro-11H-pyrido[3′,2′:4,5]pyrrolo[3,2-f]indolizin-2-yl)pyridin-2(1H)-one Hydrochloride]
3 | 0.031 µM | 140 to 150 °C | Cl.Cn1c2c(c3ccc(-n4ccc(OCc5ccc(F)cc5F)cc4=O)nc31)CN1CCCC1C2 (stereo not shown) [Example 55, 4-(2,4-Difluorobenzyloxy)-1-(11-methyl-5,7,8,9,9a,10-hexahydro-11H-pyrido[3′,2′:4,5]pyrrolo[3,2-f]indolizin-2-yl)pyridin-2(1H)-one Hydrochloride]

Second part, the compound before the results:

Row | Compound | Ki (human MCH-1 receptor) | melting point
4 | Cl.Cn1c2c(c3ccc(-n4ccc(OCc5ccc(F)cc5F)cc4=O)nc31)C1CCCN1CC2 (stereo not shown) [Example 46, 4-(2,4-Difluorobenzyloxy)-1-(7-methyl-2,3,5,6,7,11c-hexahydro-1H-pyrido[3′,2′:4,5]pyrrolo[2,3-g]indolizin-9-yl)pyridin-2(1H)-one Hydrochloride] | 0.016 µM | 134 to 145 °C
5 | Cl.Cn1c2c(c3ccc(-n4ccc(-c5ccc(C(F)(F)F)nc5)cc4=O)nc31)C1CCCN1CC2 (stereo not shown) [Example 48, 1-(7-Methyl-2,3,5,6,7,11c-hexahydro-1H-pyrido[3′,2′:4,5]pyrrolo[2,3-g]indolizin-9-yl)-4-(6-(trifluoromethyl)pyridin-3-yl)pyridin-2(1H)-one Hydrochloride] | 0.047 µM | 290 to 300 °C
6 | Cl.Cn1c2c(c3ccc(-n4ccc(-c5ccc(C(F)(F)F)cc5)cc4=O)nc31)C1CCCN1CC2 (stereo not shown) [Example 49, 1-(7-Methyl-2,3,5,6,7,11c-hexahydro-1H-pyrido[3′,2′:4,5]pyrrolo[2,3-g]indolizin-9-yl)-4-(4-(trifluoromethyl)phenyl)pyridin-2(1H)-one Hydrochloride] | 0.015 µM | 190 to 200 °C
7 | Cl.Cn1c2c(c3ccc(-n4ccc(OCc5ccccc5)cc4=O)nc31)CN1CCCC1C2 (stereo not shown) [Example 50, 4-(Benzyloxy)-1-(11-methyl-5,7,8,9,9a,10-hexahydro-11H-pyrido[3′,2′:4,5]pyrrolo[3,2-f]indolizin-2-yl)pyridin-2(1H)-one Hydrochloride] | 0.016 µM | 240 to 250 °C
8 | Cl.Cn1c2c(c3ccc(-n4ccc(OCc5ccc(F)cn5)cc4=O)nc31)CN1CCCC1C2 (stereo not shown) [Example 51, 4-((5-Fluoropyridin-2-yl)methoxy)-1-(11-methyl-5,7,8,9,9a,10-hexahydro-11H-pyrido[3′,2′:4,5]pyrrolo[3,2-f]indolizin-2-yl)pyridin-2(1H)-one Hydrochloride] | 0.037 µM | 220 to 230 °C
9 | Cl.Cn1c2c(c3ccc(-n4ccc(-c5ccc(C(F)(F)F)cc5)cc4=O)nc31)CN1CCCC1C2 (stereo not shown) [Example 52, 1-(11-Methyl-5,7,8,9,9a,10-hexahydro-11H-pyrido[3′,2′:4,5]pyrrolo[3,2-f]indolizin-2-yl)-4-(4-(trifluoromethyl)phenyl)pyridin-2(1H)-one Hydrochloride] | 0.017 µM | 300 to 305 °C
10 | Cl.Cn1c2c(c3ccc(-n4ccc(-c5ccc(C(F)(F)F)nc5)cc4=O)nc31)CN1CCCC1C2 (stereo not shown) [Example 53, 1-(11-Methyl-5,7,8,9,9a,10-hexahydro-11H-pyrido[3′,2′:4,5]pyrrolo[3,2-f]indolizin-2-yl)-4-(6-(trifluoromethyl)pyridin-3-yl)pyridin-2(1H)-one Hydrochloride] | 0.033 µM | 280 to 290 °C
11 | Cl.Cn1c2c(c3ccc(-n4ccc(OCc5ncc(F)cc5F)cc4=O)nc31)CN1CCCC1C2 (stereo not shown) [Example 56, 4-((3,5-Difluoropyridin-2-yl)methoxy)-1-(11-methyl-5,7,8,9,9a,10-hexahydro-11H-pyrido[3′,2′:4,5]pyrrolo[3,2-f]indolizin-2-yl)pyridin-2(1H)-one Hydrochloride] | 0.121 µM | 220 to 230 °C
